Results published in patent US20230340011A1 (Asteroid Therapeutics, priority 2022, published 2023).

Experiments:
LXRβ = LXRβ (Homo sapiens (Human), UniProt P55055); experiment: In vitro assay LXRβ: PathHunter NHR CHO cells, LXRβ / Steroid Receptor Co-activator Peptide enzyme fragment complementation; format: cell-based; details: PathHunter NHR CHO cells, full-length human LXRβ and SRCP, chemiluminescent signal; read-out: LXRβ PPI
Method in brief: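 Co-activator recruitment measured by chemiluminescence after signal generation. The CHO line carries full-length human LXRβ tagged with ProLink and an SRCP–enzyme acceptor fusion in the nucleus; cells sat overnight at 37° C before testing, in charcoal-dextran filtered serum medium with 1% final vehicle.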

SREBP-2 = SREBP-2 (Homo sapiens (Human), UniProt Q12772); experiment: In vitro assay SREBP-2: PathHunter U2OS SREBP-2 Nuclear Translocation Cell Line, U18666A-stimulated; format: cell-based; details: PathHunter U2OS SREBP-2 nuclear translocation cells, U18666A 10 μM, overnight (16 hours)

LXRβ, sequence (P55055 whole entry, the tested form may be a part): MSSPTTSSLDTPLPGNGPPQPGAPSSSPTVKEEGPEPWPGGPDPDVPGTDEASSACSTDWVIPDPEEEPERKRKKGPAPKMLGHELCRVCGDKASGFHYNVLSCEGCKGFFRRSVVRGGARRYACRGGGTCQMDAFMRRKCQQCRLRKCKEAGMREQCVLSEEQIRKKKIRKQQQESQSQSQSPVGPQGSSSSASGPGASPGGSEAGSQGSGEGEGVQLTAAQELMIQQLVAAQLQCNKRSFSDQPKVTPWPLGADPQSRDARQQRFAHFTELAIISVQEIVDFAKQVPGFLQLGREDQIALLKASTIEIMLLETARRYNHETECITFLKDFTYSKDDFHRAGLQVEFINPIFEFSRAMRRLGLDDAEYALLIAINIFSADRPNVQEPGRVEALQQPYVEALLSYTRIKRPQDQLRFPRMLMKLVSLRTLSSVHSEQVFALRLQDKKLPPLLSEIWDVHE

Row | SMILES | EC50 (LXRβ) [µM] | IC50 (SREBP-2) [nM]
1 | C[C@H](CCC(=O)N1CCC(CO)CC1)[C@H]1CC[C@H]2[C@@H]3CC=C4C[C@@H](O)CC[C@]4(C)[C@H]3CC[C@]12C [Example 376, (4R)-4-[(1R,3aS,3bS,7S,9aR,9bS,11aR)-7-hydroxy-9a,11a-dimethyl-1H,2H,3H,3aH,3bH,4H,6H,7H,8H,9H,9aH,9bH,10H,11H,11aH-cyclopenta[a]phenanthren-1-yl]-1-[4-(hydroxymethyl)piperidin-1-yl]pentan-1-one] | 0.25 to 1 | < 250
2 | C[C@H](COc1ccccc1)[C@H]1CC[C@H]2[C@@H]3CC=C4C[C@@H](O)CC[C@]4(C)[C@H]3CC[C@]12C [Example 182, (1R,3aS,3bS,7S,9aR,9bS,11aS)-9a,11a-dimethyl-1-[(2S)-1-phenoxypropan-2-yl]-1H,2H,3H,3aH,3bH,4H,6H,7H,8H,9H,9aH,9bH,10H,11H,11aH-cyclopenta[a]phenanthren-7-ol] | > 10 | 250 to 1000
3 | CC(=N)N1CCN(C(=O)CC[C@@H](C)[C@H]2CC[C@H]3[C@@H]4CC=C5C[C@@H](O)CC[C@]5(C)[C@H]4CC[C@]23C)CC1 [Example 245, (R)-4-((3S,8S,9S,10R,13R,14S,17R)-3-hydroxy-10,13-dimethyl-2,3,4,7,8,9,10,11,12,13,14,15,16,17-tetradecahydro-1H-cyclopenta[a]phenanthren-17-yl)-1-(4-(1-iminoethyl)piperazin-1-yl)pentan-1-one] | > 10 | 250 to 1000
4 | C[C@H](CCC(=O)N1CCC(N(C)C(=O)c2ccncc2)CC1)[C@H]1CC[C@H]2[C@@H]3CC=C4C[C@@H](O)CC[C@]4(C)[C@H]3CC[C@]12C [Example 288, N-(1-((R)-4-((3S,8S,9S,10R,13R,14S,17R)-3-hydroxy-10,13-dimethyl-2,3,4,7,8,9,10,11,12,13,14,15,16,17-tetradecahydro-1H-cyclopenta[a]phenanthren-17-yl)pentanoyl)piperidin-4-yl)-N-methylisonicotinamide] | > 10 | 250 to 1000
5 | C[C@H](CCC(=O)N1CCS(=O)(=O)C1)[C@H]1CC[C@H]2[C@@H]3CC=C4C[C@@H](O)CC[C@]4(C)[C@H]3CC[C@]12C [Example 357, (R)-1-(1,1-dioxidothiazolidin-3-yl)-4-((3S,8S,9S,10R,13R,14S,17R)-3-hydroxy-10,13-dimethyl-2,3,4,7,8,9,10,11,12,13,14,15,16,17-tetradecahydro-1H-cyclopenta[a]phenanthren-17-yl)pentan-1-one] | > 10 | < 250
6 | C[C@H](CCc1ccncc1)[C@H]1CC[C@H]2[C@@H]3CC=C4C[C@@H](O)CC[C@]4(C)[C@H]3CC[C@]12C [Example 160, (3S,8S,9S,10R,13R,14S,17R)-10,13-dimethyl-17-((R)-4-(pyridin-4-yl)butan-2-yl)-2,3,4,7,8,9,10,11,12,13,14,15,16,17-tetradecahydro-1H-cyclopenta[a]phenanthren-3-ol] | > 10 | 250 to 1000
7 | C[C@H](CCC(=O)N1CCN(c2ccnn2C)[C@@H](C)C1)[C@H]1CC[C@H]2[C@@H]3CC=C4C[C@@H](O)CC[C@]4(C)[C@H]3CC[C@]12C [Example 608, (R)-4-((3S,8S,9S,10R,13R,14S,17R)-3-hydroxy-10,13-dimethyl-2,3,4,7,8,9,10,11,12,13,14,15,16,17-tetradecahydro-1H-cyclopenta[a]phenanthren-17-yl)-1-((S)-3-methyl-4-(1-methyl-1H-pyrazol-5-yl)piperazin-1-yl)pentan-1-one] | > 10 | < 250
8 | C[C@H](CCC(=O)N1CCN(c2ccncc2)C[C@@H]1C)[C@H]1CC[C@H]2[C@@H]3CC=C4C[C@@H](O)CC[C@]4(C)[C@H]3CC[C@]12C [Example 580, (R)-4-((3S,8S,9S,10R,13R,14S,17R)-3-hydroxy-10,13-dimethyl-2,3,4,7,8,9,10,11,12,13,14,15,16,17-tetradecahydro-1H-cyclopenta[a]phenanthren-17-yl)-1-((S)-2-methyl-4-(pyridin-4-yl)piperazin-1-yl)pentan-1-one] | > 10 | < 250
9 | C[C@H](CCc1cscn1)[C@H]1CC[C@H]2[C@@H]3CC=C4C[C@@H](O)CC[C@]4(C)[C@H]3CC[C@]12C [Example 175, (1R,3aS,3bS,7S,9aR,9bS,11aR)-9a,11a-dimethyl-1-[(2R)-4-(1,3-thiazol-4-yl)butan-2-yl]-1H,2H,3H,3aH,3bH,4H,6H,7H,8H,9H,9aH,9bH,10H,11H,11aH-cyclopenta[a]phenanthren-7-ol] | 1 to 10 | < 250
10 | COc1ccc(CC[C@@H](C)[C@H]2CC[C@H]3[C@@H]4CC=C5C[C@@H](O)CC[C@]5(C)[C@H]4CC[C@]23C)nc1 [Example 601, (1R,3aS,3bS,7S,9aR,9bS,11aR)-1-[(2R)-4-(5-methoxypyridin-2-yl)butan-2-yl]-9a,11a-dimethyl-1H,2H,3H,3aH,3bH,4H,6H,7H,8H,9H,9aH,9bH,10H,11H,11aH-cyclopenta[a]phenanthren-7-ol] | 1 to 10 | 250 to 1000
11 | C[C@H](CCC(=O)N1CCN(S(=O)(=O)N(C)C)CC1)[C@H]1CC[C@H]2[C@@H]3CC=C4C[C@@H](O)CC[C@]4(C)[C@H]3CC[C@]12C [Example 358, 4-((R)-4-((3S,8S,9S,10R,13R,14S,17R)-3-hydroxy-10,13-dimethyl-2,3,4,7,8,9,10,11,12,13,14,15,16,17-tetradecahydro-1H-cyclopenta[a]phenanthren-17-yl)pentanoyl)-N,N-dimethylpiperazine-1-sulfonamide] | > 10 | < 250
12 | CC(O)c1cccnc1CC[C@@H](C)[C@H]1CC[C@H]2[C@@H]3CC=C4C[C@@H](O)CC[C@]4(C)[C@H]3CC[C@]12C (stereo partly drawn) [Example 249, (3S,8S,9S,10R,13R,14S,17R)-17-((2R)-4-(3-(1-hydroxyethyl)pyridin-2-yl)butan-2-yl)-10,13-dimethyl-2,3,4,7,8,9,10,11,12,13,14,15,16,17-tetradecahydro-1H-cyclopenta[a]phenanthren-3-ol] | < 0.25 | < 250
13 | CC(O)c1cccnc1CC[C@@H](C)[C@H]1CC[C@H]2[C@@H]3CC=C4C[C@@H](O)CC[C@]4(C)[C@H]3CC[C@]12C (stereo partly drawn) [Example 455, (3S,8S,9S,10R,13R,14S,17R)-17-((2R)-4-(3-(1-hydroxyethyl)pyridin-2-yl)butan-2-yl)-10,13-dimethyl-2,3,4,7,8,9,10,11,12,13,14,15,16,17-tetradecahydro-1H-cyclopenta[a]phenanthren-3-ol] | < 0.25 | < 250
14 | C[C@H](CC(=O)N1CCN(C(=O)c2cnn(C)c2)CC1)[C@H]1CC[C@H]2[C@@H]3CC=C4C[C@@H](O)CC[C@]4(C)[C@H]3CC[C@]12C [Example 594, (R)-3-((3S,8S,9S,10R,13R,14S,17R)-3-hydroxy-10,13-dimethyl-2,3,4,7,8,9,10,11,12,13,14,15,16,17-tetradecahydro-1H-cyclopenta[a]phenanthren-17-yl)-1-(4-(1-methyl-1H-pyrazole-4-carbonyl)piperazin-1-yl)butan-1-one] | > 10 | 1000 to 10000
15 | CCCN(CCC)C(=O)C(=O)O[C@@H](C)[C@H]1CC[C@H]2[C@@H]3CC=C4C[C@@H](O)CC[C@]4(C)[C@H]3CC[C@]12C [Example 196, (S)-1-((3S,8S,9S,10R,13S,14S,17S)-3-hydroxy-10,13-dimethyl-2,3,4,7,8,9,10,11,12,13,14,15,16,17-tetradecahydro-1H-cyclopenta[a]phenanthren-17-yl)ethyl 2-(dipropylamino)-2-oxoacetate] | 1 to 10 | < 250
16 | CNC(=O)C1(C)CCN(C(=O)CC[C@@H](C)[C@H]2CC[C@H]3[C@@H]4CC=C5C[C@@H](O)CC[C@]5(C)[C@H]4CC[C@]23C)CC1 [Example 86, 1-((R)-4-((3S,8S,9S,10R,13R,14S,17R)-3-hydroxy-10,13-dimethyl-2,3,4,7,8,9,10,11,12,13,14,15,16,17-tetradecahydro-1H-cyclopenta[a]phenanthren-17-yl)pentanoyl)-N,4-dimethylpiperidine-4-carboxamide] | > 10 | 250 to 1000
17 | CON(C(=O)CC[C@@H](C)[C@H]1CC[C@H]2[C@@H]3CC=C4C[C@@H](O)CC[C@]4(C)[C@H]3CC[C@]12C)C(C)CO (stereo partly drawn) [Example 66, (4R)-4-((3S,8S,9S,10R,13R,14S,17R)-3-hydroxy-10,13-dimethyl-2,3,4,7,8,9,10,11,12,13,14,15,16,17-tetradecahydro-1H-cyclopenta[a]phenanthren-17-yl)-N-(1-hydroxypropan-2-yl)-N-methoxypentanamide] | 0.25 to 1 | 250 to 1000
18 | COc1nccnc1N1CCN(C(=O)CC[C@@H](C)[C@H]2CC[C@H]3[C@@H]4CC=C5C[C@@H](O)CC[C@]5(C)[C@H]4CC[C@]23C)CC1 [Example 610, (R)-4-((3S,8S,9S,10R,13R,14S,17R)-3-hydroxy-10,13-dimethyl-2,3,4,7,8,9,10,11,12,13,14,15,16,17-tetradecahydro-1H-cyclopenta[a]phenanthren-17-yl)-1-(4-(3-methoxypyrazin-2-yl)piperazin-1-yl)pentan-1-one] | > 10 | < 250
19 | Cc1cc(N2CCN(C(=O)CC[C@@H](C)[C@H]3CC[C@H]4[C@@H]5CC=C6C[C@@H](O)CC[C@]6(C)[C@H]5CC[C@]34C)CC2)ncn1 [Example 206, (4R)-4-[(1R,3aS,3bS,7S,9aR,9bS,11aR)-7-hydroxy-9a,11a-dimethyl-1H,2H,3H,3aH,3bH,4H,6H,7H,8H,9H,9aH,9bH,10H,11H,11aH-cyclopenta[a]phenanthren-1-yl]-1-[4-(6-methylpyrimidin-4-yl)piperazin-1-yl]pentan-1-one] | > 10 | < 250
